Laboratory results as given in PMC12090182, “Repurposing of the RIPK1-Selective Benzo[1,4]oxazepin-4-one Scaffold for the Development of a Type III LIMK1/2 Inhibitor” (ACS Chemical Biology, 2025).
Where two headings read alike, the source gives them in different places.

How the values were obtained:
Assay in all cases: biochemical
Assay type in all cases: binding
[1] = biological target: 468 kinases including some pathogenic mutants (Homo sapiens, UniProt O15530); conditions: PDPK1 (Entrez PDPK1), 100 nM; read-out: Percent Control
Chain of 468 kinases including some pathogenic mutants (Homo sapiens, UniProt O15530) (O15530 whole entry, change not shown): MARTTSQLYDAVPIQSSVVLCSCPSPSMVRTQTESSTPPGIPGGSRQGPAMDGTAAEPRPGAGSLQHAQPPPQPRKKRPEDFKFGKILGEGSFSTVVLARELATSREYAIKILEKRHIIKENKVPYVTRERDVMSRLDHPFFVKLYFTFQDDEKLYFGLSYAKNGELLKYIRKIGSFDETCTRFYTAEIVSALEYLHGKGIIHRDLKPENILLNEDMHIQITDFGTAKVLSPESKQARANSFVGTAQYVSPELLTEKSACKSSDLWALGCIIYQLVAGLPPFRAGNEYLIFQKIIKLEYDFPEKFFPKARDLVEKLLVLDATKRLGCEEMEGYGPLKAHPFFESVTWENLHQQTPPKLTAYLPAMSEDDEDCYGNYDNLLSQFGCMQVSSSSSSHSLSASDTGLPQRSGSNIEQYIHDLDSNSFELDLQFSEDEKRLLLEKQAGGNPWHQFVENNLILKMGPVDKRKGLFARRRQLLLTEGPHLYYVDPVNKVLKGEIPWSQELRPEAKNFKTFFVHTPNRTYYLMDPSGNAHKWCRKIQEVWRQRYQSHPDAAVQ

[2] = biological target: 468 kinases including some pathogenic mutants (Homo sapiens, UniProt O75676); conditions: 1000 nM, read-out: Percent Control
Chain of 468 kinases including some pathogenic mutants (Homo sapiens, UniProt O75676) (O75676 whole entry, stated change not applied): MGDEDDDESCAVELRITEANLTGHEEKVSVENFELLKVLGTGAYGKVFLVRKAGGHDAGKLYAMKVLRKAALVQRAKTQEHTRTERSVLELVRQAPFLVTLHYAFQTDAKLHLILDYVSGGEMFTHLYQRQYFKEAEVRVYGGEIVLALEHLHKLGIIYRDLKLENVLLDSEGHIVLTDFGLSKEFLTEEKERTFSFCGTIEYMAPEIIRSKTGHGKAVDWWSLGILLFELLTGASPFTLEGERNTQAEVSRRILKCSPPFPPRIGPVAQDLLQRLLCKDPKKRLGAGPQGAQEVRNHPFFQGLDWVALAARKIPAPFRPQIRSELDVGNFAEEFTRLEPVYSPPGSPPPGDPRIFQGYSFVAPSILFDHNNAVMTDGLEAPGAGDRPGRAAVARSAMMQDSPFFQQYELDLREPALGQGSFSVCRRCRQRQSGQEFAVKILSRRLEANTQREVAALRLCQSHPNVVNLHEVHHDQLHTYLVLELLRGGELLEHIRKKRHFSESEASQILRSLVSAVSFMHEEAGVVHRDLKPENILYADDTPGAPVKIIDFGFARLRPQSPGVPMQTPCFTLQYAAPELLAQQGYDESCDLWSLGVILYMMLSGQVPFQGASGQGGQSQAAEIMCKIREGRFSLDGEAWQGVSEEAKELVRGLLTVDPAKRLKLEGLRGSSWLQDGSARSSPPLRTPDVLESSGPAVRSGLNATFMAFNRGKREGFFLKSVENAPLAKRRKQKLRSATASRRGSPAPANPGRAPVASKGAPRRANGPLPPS

[3] = biological target: 468 kinases including some pathogenic mutants (Homo sapiens, UniProt P00519, E255K); conditions: read-out: Percent Control
[4] = biological target: 468 kinases including some pathogenic mutants (Homo sapiens, UniProt P00519, H396P)
[5] = biological target: 468 kinases including some pathogenic mutants (Homo sapiens, UniProt P00533, DEL746-750); conditions: read-out: Percent Control
[6] = biological target: 468 kinases including some pathogenic mutants (Homo sapiens, UniProt P06241); conditions: FYN (Entrez FYN), 100 nM; read-out: Percent Control
[7] = biological target: 468 kinases including some pathogenic mutants (Homo sapiens, UniProt P10721, L576P); conditions: read-out: Percent Control
Chain of 468 kinases including some pathogenic mutants (Homo sapiens, UniProt P10721, L576P) (P10721 26-976 L576P): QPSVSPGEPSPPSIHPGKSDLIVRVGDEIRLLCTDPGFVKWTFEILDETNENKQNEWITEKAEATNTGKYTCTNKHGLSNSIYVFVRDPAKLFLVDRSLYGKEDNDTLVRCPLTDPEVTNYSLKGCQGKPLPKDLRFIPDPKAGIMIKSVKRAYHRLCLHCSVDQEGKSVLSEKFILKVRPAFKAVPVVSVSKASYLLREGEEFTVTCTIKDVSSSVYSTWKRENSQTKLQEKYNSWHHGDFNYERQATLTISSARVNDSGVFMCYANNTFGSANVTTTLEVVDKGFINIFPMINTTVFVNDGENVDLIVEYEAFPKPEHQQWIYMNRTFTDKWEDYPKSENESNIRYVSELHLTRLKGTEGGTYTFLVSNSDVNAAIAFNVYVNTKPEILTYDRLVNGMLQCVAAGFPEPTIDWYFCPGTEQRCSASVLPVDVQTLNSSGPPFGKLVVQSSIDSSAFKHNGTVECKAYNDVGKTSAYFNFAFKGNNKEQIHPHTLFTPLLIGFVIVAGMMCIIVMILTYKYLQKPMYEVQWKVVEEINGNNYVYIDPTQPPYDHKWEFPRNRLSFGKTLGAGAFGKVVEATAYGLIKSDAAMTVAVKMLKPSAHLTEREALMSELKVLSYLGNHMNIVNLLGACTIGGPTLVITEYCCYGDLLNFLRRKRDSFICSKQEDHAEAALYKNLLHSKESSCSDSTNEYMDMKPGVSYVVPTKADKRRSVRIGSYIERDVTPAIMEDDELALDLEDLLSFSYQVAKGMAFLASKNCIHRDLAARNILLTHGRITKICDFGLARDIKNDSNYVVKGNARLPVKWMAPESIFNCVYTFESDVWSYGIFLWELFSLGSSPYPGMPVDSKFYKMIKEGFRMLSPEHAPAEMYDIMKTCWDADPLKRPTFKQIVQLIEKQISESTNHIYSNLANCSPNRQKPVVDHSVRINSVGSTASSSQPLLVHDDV

[8] = biological target: 468 kinases including some pathogenic mutants (Homo sapiens, UniProt P11309); conditions: PIM1 (Entrez PIM1), 100 nM; read-out: Percent Control
[9] = biological target: 468 kinases including some pathogenic mutants (Homo sapiens, UniProt P22694); conditions: PKAC-beta (Entrez PRKACB), 100 nM; read-out: Percent Control
[10] = biological target: 468 kinases including some pathogenic mutants (Homo sapiens, UniProt P28482); conditions: ERK2 (Entrez MAPK1), 100 nM; read-out: Percent Control
[11] = biological target: 468 kinases including some pathogenic mutants (Homo sapiens, UniProt P42336, H1047Y); conditions: read-out: Percent Control
[12] = biological target: 468 kinases including some pathogenic mutants (Homo sapiens, UniProt P42345); conditions: MTOR (Entrez MTOR), 1000 nM; read-out: Percent Control
[13] = biological target: 468 kinases including some pathogenic mutants (Homo sapiens, UniProt P46734); conditions: MEK3 (Entrez MAP2K3), 100 nM; read-out: Percent Control
Chain of 468 kinases including some pathogenic mutants (Homo sapiens, UniProt P46734) (P46734 whole entry, change not shown): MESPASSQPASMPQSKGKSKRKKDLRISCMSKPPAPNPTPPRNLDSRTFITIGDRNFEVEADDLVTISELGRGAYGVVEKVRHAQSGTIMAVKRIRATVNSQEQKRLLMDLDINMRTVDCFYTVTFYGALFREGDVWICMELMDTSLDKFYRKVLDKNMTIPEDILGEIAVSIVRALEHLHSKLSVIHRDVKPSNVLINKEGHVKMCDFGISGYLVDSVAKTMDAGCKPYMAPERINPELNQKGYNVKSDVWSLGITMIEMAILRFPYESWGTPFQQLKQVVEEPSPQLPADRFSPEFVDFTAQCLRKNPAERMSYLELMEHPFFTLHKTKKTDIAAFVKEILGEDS

[14] = biological target: 468 kinases including some pathogenic mutants (Homo sapiens, UniProt P51817); conditions: PRKX (Entrez PRKX), 100 nM; read-out: Percent Control
[15] = biological target: 468 kinases including some pathogenic mutants (Homo sapiens, UniProt P52564); conditions: MEK6 (Entrez MAP2K6), 1000 nM; read-out: Percent Control
[16] = biological target: 468 kinases including some pathogenic mutants (Homo sapiens, UniProt P53350); conditions: PLK1 (Entrez PLK1), 100 nM; read-out: Percent Control
Chain of 468 kinases including some pathogenic mutants (Homo sapiens, UniProt P53350) (P53350 whole entry, change not shown): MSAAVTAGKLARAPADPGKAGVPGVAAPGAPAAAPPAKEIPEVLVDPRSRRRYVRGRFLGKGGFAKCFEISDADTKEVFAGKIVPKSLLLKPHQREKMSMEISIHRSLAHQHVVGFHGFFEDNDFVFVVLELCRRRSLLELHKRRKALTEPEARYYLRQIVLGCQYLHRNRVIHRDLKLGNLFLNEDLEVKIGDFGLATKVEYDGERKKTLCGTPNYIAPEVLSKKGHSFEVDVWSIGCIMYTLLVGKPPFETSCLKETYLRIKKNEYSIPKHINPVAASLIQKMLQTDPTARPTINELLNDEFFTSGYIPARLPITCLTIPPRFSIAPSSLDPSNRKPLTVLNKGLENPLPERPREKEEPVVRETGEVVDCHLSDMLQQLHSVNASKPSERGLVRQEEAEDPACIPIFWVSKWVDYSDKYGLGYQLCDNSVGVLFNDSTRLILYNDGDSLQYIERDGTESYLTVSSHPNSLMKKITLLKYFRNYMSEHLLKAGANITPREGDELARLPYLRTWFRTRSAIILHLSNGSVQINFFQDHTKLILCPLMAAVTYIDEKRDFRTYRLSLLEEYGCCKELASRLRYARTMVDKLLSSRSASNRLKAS

[17] = biological target: 468 kinases including some pathogenic mutants (Homo sapiens, UniProt Q04771); conditions: ACVR1 (Entrez ACVR1), 100 nM; read-out: Percent Control
[18] = biological target: 468 kinases including some pathogenic mutants (Homo sapiens, UniProt Q13557); conditions: CAMK2D (Entrez CAMK2D), 100 nM; read-out: Percent Control
[19] = biological target: 468 kinases including some pathogenic mutants (Homo sapiens, UniProt Q13882); conditions: BRK (Entrez PTK6), 100 nM; read-out: Percent Control
[20] = biological target: 468 kinases including some pathogenic mutants (Homo sapiens, UniProt Q15303); conditions: ERBB4 (Entrez ERBB4), 100 nM; read-out: Percent Control
[21] = biological target: 468 kinases including some pathogenic mutants (Homo sapiens, UniProt Q86UX6); conditions: YANK3 (Entrez STK32C), 100 nM; read-out: Percent Control
[22] = biological target: 468 kinases including some pathogenic mutants (Homo sapiens, UniProt Q8IY84); conditions: NIM1 (Entrez MGC42105), 1000 nM; read-out: Percent Control
Chain of 468 kinases including some pathogenic mutants (Homo sapiens, UniProt Q8IY84) (Q8IY84 whole entry, change not shown): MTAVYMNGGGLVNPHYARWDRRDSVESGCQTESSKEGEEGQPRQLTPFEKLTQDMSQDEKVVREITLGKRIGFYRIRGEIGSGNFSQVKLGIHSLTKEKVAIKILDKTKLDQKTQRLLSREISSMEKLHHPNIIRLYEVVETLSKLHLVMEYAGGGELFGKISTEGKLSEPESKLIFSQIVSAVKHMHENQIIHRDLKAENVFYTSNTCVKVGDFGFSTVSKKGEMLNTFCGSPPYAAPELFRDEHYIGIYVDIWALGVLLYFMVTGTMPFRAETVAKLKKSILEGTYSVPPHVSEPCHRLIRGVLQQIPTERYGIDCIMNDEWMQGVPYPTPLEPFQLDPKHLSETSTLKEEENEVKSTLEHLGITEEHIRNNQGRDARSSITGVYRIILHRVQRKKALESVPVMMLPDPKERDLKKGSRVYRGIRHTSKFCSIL

[23] = biological target: 468 kinases including some pathogenic mutants (Homo sapiens, UniProt Q8TDR2); conditions: STK35 (Entrez STK35), 1000 nM; read-out: Percent Control
[24] = biological target: 468 kinases including some pathogenic mutants (Homo sapiens, UniProt Q8WTQ7); conditions: GRK7 (Entrez GRK7), 100 nM; read-out: Percent Control
[25] = biological target: 468 kinases including some pathogenic mutants (Homo sapiens, UniProt Q96Q40); conditions: PFTAIRE2 (Entrez CDK15), 100 nM; read-out: Percent Control
[26] = biological target: 468 kinases including some pathogenic mutants (Homo sapiens, UniProt Q96SB4); conditions: SRPK1 (Entrez SRPK1), 100 nM; read-out: Percent Control
[27] = biological target: 468 kinases including some pathogenic mutants (Homo sapiens, UniProt Q9NRP7); conditions: STK36 (Entrez STK36), 100 nM; read-out: Percent Control
Chain of 468 kinases including some pathogenic mutants (Homo sapiens, UniProt Q9NRP7) (Q9NRP7 whole entry, change not shown): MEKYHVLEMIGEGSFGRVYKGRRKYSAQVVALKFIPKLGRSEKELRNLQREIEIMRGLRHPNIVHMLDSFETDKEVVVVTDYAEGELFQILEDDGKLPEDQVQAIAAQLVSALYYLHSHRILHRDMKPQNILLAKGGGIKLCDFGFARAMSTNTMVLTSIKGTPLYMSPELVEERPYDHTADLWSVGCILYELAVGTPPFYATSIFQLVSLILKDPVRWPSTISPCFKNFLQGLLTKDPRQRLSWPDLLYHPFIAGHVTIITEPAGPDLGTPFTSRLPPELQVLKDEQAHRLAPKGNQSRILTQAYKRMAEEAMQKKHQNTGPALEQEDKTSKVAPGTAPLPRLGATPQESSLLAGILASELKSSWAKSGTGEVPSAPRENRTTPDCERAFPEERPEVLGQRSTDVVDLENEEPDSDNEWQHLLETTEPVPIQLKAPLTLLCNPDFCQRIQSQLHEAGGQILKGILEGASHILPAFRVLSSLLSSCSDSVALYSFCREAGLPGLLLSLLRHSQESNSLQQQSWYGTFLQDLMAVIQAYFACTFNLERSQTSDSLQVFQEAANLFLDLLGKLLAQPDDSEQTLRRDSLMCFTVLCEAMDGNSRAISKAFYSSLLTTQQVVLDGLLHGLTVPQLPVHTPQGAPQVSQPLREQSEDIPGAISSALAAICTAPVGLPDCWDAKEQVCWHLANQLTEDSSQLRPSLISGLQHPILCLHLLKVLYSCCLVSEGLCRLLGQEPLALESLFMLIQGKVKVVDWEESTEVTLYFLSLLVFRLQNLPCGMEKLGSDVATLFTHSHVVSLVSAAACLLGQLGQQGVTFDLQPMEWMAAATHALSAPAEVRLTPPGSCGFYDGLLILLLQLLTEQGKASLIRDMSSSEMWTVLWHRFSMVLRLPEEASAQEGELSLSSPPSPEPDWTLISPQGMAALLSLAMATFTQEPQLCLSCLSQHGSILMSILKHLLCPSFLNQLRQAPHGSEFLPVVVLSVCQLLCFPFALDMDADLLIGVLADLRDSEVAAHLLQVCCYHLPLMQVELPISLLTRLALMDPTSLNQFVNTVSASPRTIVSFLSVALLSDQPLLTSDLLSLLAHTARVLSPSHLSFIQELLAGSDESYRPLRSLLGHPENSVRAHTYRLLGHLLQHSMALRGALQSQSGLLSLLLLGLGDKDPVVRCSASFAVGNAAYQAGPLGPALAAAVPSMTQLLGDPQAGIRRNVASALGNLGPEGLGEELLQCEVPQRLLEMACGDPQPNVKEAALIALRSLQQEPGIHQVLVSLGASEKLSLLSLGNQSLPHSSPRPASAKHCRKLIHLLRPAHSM

[28] = biological target: 468 kinases including some pathogenic mutants (Homo sapiens, UniProt Q9Y2I7); conditions: PIKFYVE (Entrez PIKFYVE), 1000 nM; read-out: Percent Control

Q: How did the remaining activity at 0.1 µM [1] turn out when `CN1C(=O)[C@@H](N2CCc3c(nn(Cc4ccccc4)c3C(N)=O)C2=O)COc2cc(Cl)ccc21` [Compound 10, (S)-2-benzyl-6-(8-chloro-5-methyl-4-oxo-2,3,4,5-tetrahydrobenzo[b][1,4]oxazepin-3-yl)-7-oxo-4,5,6,7-tetrahydro-2H-pyrazolo[3,4-c]pyridine-3-carboxamide] was run?
A: The remaining activity at 0.1 µM was 100%.

Q: And the remaining activity at 1 µM ([2]; RPS6KA4(Kin.Dom.1-N-terminal) (Entrez RPS6KA4))?
A: Its remaining activity at 1 µM is 100%.

Q: What about the remaining activity at 1 µM ([2]; RPS6KA4(Kin.Dom.2-C-terminal) (Entrez RPS6KA4)) of the same molecule?
A: Its remaining activity at 1 µM is 100%.

Q: And the remaining activity at 0.1 µM [3]?
A: The remaining activity at 0.1 µM was 84%.

Q: What about the “Percent Control” value ([4]; listed as LIJTF500025) of the same molecule?
A: Its value is 73%.

Q: What about the remaining activity at 0.1 µM ([4]; read-out: Percent Control) of the same molecule?
A: The remaining activity at 0.1 µM was 67%.

Q: And the remaining activity at 0.1 µM [5]?
A: The remaining activity at 0.1 µM was 78%.

Q: What about the remaining activity at 0.1 µM [6] of the same molecule?
A: The remaining activity at 0.1 µM was 71%.

Q: And the remaining activity at 0.1 µM [7]?
A: Its remaining activity at 0.1 µM is 72%.

Q: What about the remaining activity at 0.1 µM [8] of the same molecule?
A: The remaining activity at 0.1 µM was 93%.

Q: And the remaining activity at 0.1 µM [9]?
A: The remaining activity at 0.1 µM was 56%.

Q: And the remaining activity at 0.1 µM [10]?
A: Its remaining activity at 0.1 µM is 77%.

Q: What about the remaining activity at 1 µM [11] of the same molecule?
A: The remaining activity at 1 µM was 100%.

Q: And the remaining activity at 1 µM [12]?
A: The remaining activity at 1 µM was 100%.

Q: And the remaining activity at 0.1 µM [13]?
A: Its remaining activity at 0.1 µM is 85%.

Q: And the remaining activity at 0.1 µM [14]?
A: The remaining activity at 0.1 µM was 77%.

Q: What about the remaining activity at 1 µM [15] of the same molecule?
A: Its remaining activity at 1 µM is 100%.

Q: What about the remaining activity at 0.1 µM [16] of the same molecule?
A: The remaining activity at 0.1 µM was 68%.

Q: And the remaining activity at 0.1 µM [17]?
A: The remaining activity at 0.1 µM was 88%.

Q: And the remaining activity at 0.1 µM [18]?
A: Its remaining activity at 0.1 µM is 80%.

Q: And the remaining activity at 0.1 µM [19]?
A: The remaining activity at 0.1 µM was 81%.

Q: What about the remaining activity at 0.1 µM [20] of the same molecule?
A: Its remaining activity at 0.1 µM is 79%.

Q: What about the remaining activity at 0.1 µM [21] of the same molecule?
A: Its remaining activity at 0.1 µM is 86%.

Q: And the remaining activity at 1 µM [22]?
A: Its remaining activity at 1 µM is 100%.

Q: What about the remaining activity at 1 µM [23] of the same molecule?
A: Its remaining activity at 1 µM is 100%.

Q: And the remaining activity at 0.1 µM [24]?
A: Its remaining activity at 0.1 µM is 77%.

Q: And the remaining activity at 0.1 µM [25]?
A: The remaining activity at 0.1 µM was 82%.

Q: And the remaining activity at 0.1 µM [26]?
A: Its remaining activity at 0.1 µM is 100%.

Q: And the remaining activity at 0.1 µM [27]?
A: Its remaining activity at 0.1 µM is 100%.

Q: What about the remaining activity at 1 µM [28] of the same molecule?
A: Its remaining activity at 1 µM is 100%.
